According to patent US7524847B2, “Fused 1,3-dihydro-imidazole ring compounds” (Eisai R&D Management Co., Ltd., priority 2002, dated 2009):
Structures can show the parent of a compound that is named as a salt.

Biological target: T1, DPP-IV obtained from pig kidney (Sus scrofa, UniProt P22411)
T1 construct: DPP-IV obtained from pig kidney; from tissue; host or cells: pig kidney
Test: Measurement of DPPIV-inhibiting activity (in vitro experiment)
Assay type: biochemical
Settings: DPP-IV from pig kidney 10 mU/mL, substrate Gly-Pro-p-nitroanilide 0.33 mM, 20 min preincubation, 20 min reaction, absorbance 405 nm
Description: DPP-IV obtained from pig kidney was dissolved in a reaction buffer (50 mM Tris-HCl pH7.4, 0.1% BSA) at 10 mU/mL, and 110 μL of this was used. 15 μL of the drug obtained from the aforementioned Examples was added, and this was incubated at room temperature for 20 minutes, and then 25 μL of a 2 mM solution of Gly-Pro-p-nitroanilide (final concentration 0.33 mM) was added to start the enzymatic reaction. The reaction time was 20 minutes, and 1 N phosphoric acid solution (25 μL) was added to stop the reaction.

T1 sequence (P22411 whole entry): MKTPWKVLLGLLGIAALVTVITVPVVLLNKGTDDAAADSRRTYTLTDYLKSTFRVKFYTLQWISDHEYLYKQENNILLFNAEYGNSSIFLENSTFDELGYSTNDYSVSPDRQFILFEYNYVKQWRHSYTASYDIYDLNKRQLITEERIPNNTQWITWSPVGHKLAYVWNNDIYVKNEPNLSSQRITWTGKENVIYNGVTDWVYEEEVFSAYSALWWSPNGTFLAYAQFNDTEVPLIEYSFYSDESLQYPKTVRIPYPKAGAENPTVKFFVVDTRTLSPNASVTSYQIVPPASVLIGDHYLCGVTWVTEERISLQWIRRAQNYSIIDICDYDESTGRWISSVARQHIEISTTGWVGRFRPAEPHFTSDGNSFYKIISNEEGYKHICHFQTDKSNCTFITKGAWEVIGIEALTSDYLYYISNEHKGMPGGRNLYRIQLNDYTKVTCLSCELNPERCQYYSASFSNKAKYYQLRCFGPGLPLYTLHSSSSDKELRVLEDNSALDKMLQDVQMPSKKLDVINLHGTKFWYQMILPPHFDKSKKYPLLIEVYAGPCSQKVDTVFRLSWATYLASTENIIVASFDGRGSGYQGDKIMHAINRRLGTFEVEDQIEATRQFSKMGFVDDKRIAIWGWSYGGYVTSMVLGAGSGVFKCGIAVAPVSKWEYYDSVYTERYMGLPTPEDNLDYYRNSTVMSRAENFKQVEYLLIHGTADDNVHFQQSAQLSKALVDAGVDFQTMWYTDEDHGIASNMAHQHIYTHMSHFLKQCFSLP

Row | Compound | IC50
1 | CC#CCn1c(=O)n(C)c2nc(Cl)nc(N3CCNCC3)c21 [Example 2, 7-(2-Butynyl)-2-chloro-9-methyl-6-(piperazin-1-yl)-7,9-dihydropurin-8-one trifluoroacetic acid salt] | 86.4 nM
2 | CC#CCn1c(=O)n(C)c2nc(N(CC)CC)nc(N3CCNCC3)c21 [Example 3, 7-(2-Butynyl)-2-diethylamino-9-methyl-6-(piperazin-1-yl)-7,9-dihydropurin-8-one trifluoroacetic acid salt] | 325 nM
3 | CC#CCn1c(=O)n(C)c2nc(N(C)C)nc(N3CCNCC3)c21 [Example 4, 7-(2-Butynyl)-2-dimethylamino-9-methyl-6-(piperazin-1-yl)-7,9-dihydropurin-8-one trifluoroacetic acid salt] | 334 nM
4 | CC#CCn1c(=O)n(C)c2nc(NC)nc(N3CCNCC3)c21 [Example 5, 7-(2-Butynyl)-9-methyl-2-methylamino-6-(piperazin-1-yl)-7,9-dihydropurin-8-one trifluoroacetic acid salt] | 172 nM
5 | CC#CCn1c(=O)n(C)c2nc(N)nc(N3CCNCC3)c21 [Example 6, 2-Amino-7-(2-butynyl)-9-methyl-6-(piperazin-1-yl)-7,9-dihydropurin-8-one trifluoroacetic acid salt] | 450 nM
6 | CC#CCn1c(=O)n(C)c2nc(O)nc(N3CCNCC3)c21 [Example 8, 7-(2-Butynyl)-2-hydroxy-9-methyl-6-(piperazin-1-yl)-7,9-dihydropurin-8-one trifluoroacetic acid salt] | 1160 nM
7 | CC#CCn1c(=O)n(C)c2nc(SC)nc(N3CCNCC3)c21 [Example 9, 7-(2-Butynyl)-2-methylsulfanyl-9-methyl-6-(piperazin-1-yl)-7,9-dihydropurin-8-one trifluoroacetic acid salt] | 214 nM
8 | CC#CCn1c(=O)n(C)c2nc(OCc3ccccc3)nc(N3CCNCC3)c21 [Example 11, 2-Benzyloxy-7-(2-butynyl)-9-methyl-6-(piperazin-1-yl)-7,9-dihydropurin-8-one trifluoroacetic acid salt] | 179 nM
9 | CC#CCn1c(=O)n(C)c2nc(Oc3ccccc3)nc(N3CCNCC3)c21 [Example 12, 7-(2-Butynyl)-9-methyl-2-phenoxy-6-(piperazin-1-yl)-7,9-dihydropurin-8-one trifluoroacetic acid salt] | 47.4 nM
10 | CC#CCn1c(=O)n(C)c2nc(Oc3ccccc3C(N)=O)nc(N3CCNCC3)c21 [Example 14, 2-[7-(2-Butynyl)-9-methyl-8-oxo-6-(piperazin-1-yl)-8,9-dihydro-7H-purin-2-yloxy]benzamide trifluoroacetic acid salt] | 124 nM
11 | CC#CCOc1nc(N2CCNCC2)c2c(n1)n(C)c(=O)n2CC#CC [Example 16, 7-(2-Butynyl)-2-(2-butynyloxy)-9-methyl-6-(piperazin-1-yl)-7,9-dihydropurin-8-one trifluoroacetic acid salt] | 364 nM
12 | CC#CCn1c(=O)n(C)c2nc(NCc3ccccc3)nc(N3CCNCC3)c21 [Example 17, 2-Benzylamino-7-(2-butynyl)-9-methyl-6-(piperazin-1-yl)-7,9-dihydropurin-8-one trifluoroacetic acid salt] | 263 nM
13 | CCC#CCn1c(=O)n(C)c2nc(Cl)nc(N3CCNCC3)c21 [Example 18, 2-Chloro-9-methyl-7-(2-pentynyl)-6-(piperazin-1-yl)-7,9-dihydropurin-8-one trifluoroacetic acid salt] | 972 nM
14 | CC(C)=CCn1c(=O)n(C)c2nc(Cl)nc(N3CCNCC3)c21 [Example 19, 2-Chloro-9-methyl-7-(3-methyl-2-butenyl)-6-(piperazin-1-yl)-7,9-dihydropurin-8-one trifluoroacetic acid salt] | 5410 nM
15 | CC=CCn1c(=O)n(C)c2nc(Cl)nc(N3CCNCC3)c21 [Example 20, 7-(2-Butenyl)-2-chloro-9-methyl-6-(piperazin-1-yl)-7,9-dihydropurin-8-one trifluoroacetic acid salt] | 642 nM
16 | Cn1c(=O)n(Cc2ccccc2)c2c(N3CCNCC3)nc(Cl)nc21 [Example 21, 7-Benzyl-2-chloro-9-methyl-6-(piperazin-1-yl)-7,9-dihydropurin-8-one trifluoroacetic acid salt] | 2450 nM
17 | CC#CCn1c(=O)n(C)c2nc(Cl)nc(N3CCCC(N)C3)c21 (stereo not drawn) [Example 27, 6-(3-Amino-piperidin-1-yl)-7-(2-butynyl)-2-chloro-9-methyl-7,9-dihydropurin-8-one trifluoroacetic acid salt] | 3140 nM
18 | CC#CCn1c(=O)n(C)c2nc(Cl)nc(N3CCCC(NC)C3)c21 (stereo not drawn) [Example 28, 7-(2-Butynyl)-2-chloro-9-methyl-6-(3-methylamino-piperidin-1-yl)-7,9-dihydropurin-8-one trifluoroacetic acid salt] | 89500 nM
19 | CC#CCn1c(=O)n(Cc2ccccc2C#N)c2nc(Cl)nc(N3CCNCC3)c21 [Example 29, 2-[7-(2-Butynyl)-2-chloro-8-oxo-6-(piperazin-1-yl)-7,8-dihydropurin-9-ylmethyl]benzonitrile trifluoroacetic acid salt] | 2.92 nM
20 | CC#CCn1c(=O)n(CCC)c2nc(Cl)nc(N3CCNCC3)c21 [Example 30, 7-(2-Butynyl)-2-chloro-6-(piperazin-1-yl)-9-propyl-7,9-dihydropurin-8-one trifluoroacetic acid salt] | 132 nM
21 | CC#CCn1c(=O)n(CC(=O)O)c2nc(Cl)nc(N3CCNCC3)c21 [Example 31, [7-(2-Butynyl)-2-chloro-8-oxo-6-(piperazin-1-yl)-7,8-dihydropurin-9-yl]acetic acid trifluoroacetic acid salt] | 259 nM
22 | CC#CCn1c(=O)n(CC#N)c2nc(Cl)nc(N3CCNCC3)c21 [Example 32, [7-(2-Butynyl)-2-chloro-8-oxo-6-(piperazin-1-yl)-7,8-dihydropurin-9-yl]acetonitrile trifluoroacetic acid salt] | 212 nM
23 | CC#CCn1c(=O)n(CC(N)=O)c2nc(Cl)nc(N3CCNCC3)c21 [Example 33, 2-[7-(2-Butynyl)-2-chloro-8-oxo-6-(piperazin-1-yl)-7,8-dihydropurin-9-yl]acetamide trifluoroacetic acid salt] | 163 nM
24 | CC#CCn1c(=O)n(CCc2ccccc2)c2nc(Cl)nc(N3CCNCC3)c21 [Example 34, 7-(2-Butynyl)-2-chloro-9-(2-phenylethyl)-6-(piperazin-1-yl)-7,9-dihydropurin-8-one trifluoroacetic acid salt] | 14.8 nM
25 | CC#CCn1c(=O)n(CCc2ccc(Br)cc2)c2nc(Cl)nc(N3CCNCC3)c21 [Example 35, 9-[2-(4-Bromophenyl)-ethyl]-7-(2-butynyl)-2-chloro-6-(piperazin-1-yl)-7,9-dihydropurin-8-one trifluoroacetic acid salt] | 26.6 nM
26 | CC#CCn1c(=O)n(Cc2ccccc2)c2nc(Cl)nc(N3CCNCC3)c21 [Example 36, 9-Benzyl-7-(2-butynyl)-2-chloro-6-(piperazin-1-yl)-7,9-dihydropurin-8-one trifluoroacetic acid salt] | 80.7 nM
27 | CC#CCn1c(=O)n(CCCC#N)c2nc(Cl)nc(N3CCNCC3)c21 [Example 37, 4-[7-(2-Butynyl)-2-chloro-8-oxo-6-(piperazin-1-yl)-7,8-dihydropurin-9-yl]butyronitrile trifluoroacetic acid] | 149 nM
